Our source for the EC50 values is US20190084939A1, “ANALOGS OF FEXARAMINE AND METHODS OF MAKING AND USING” (Salk Institute for Biological Studies, priority 2014, published 2019).

The structures appear in SMILES notation. Where two headings read alike, the source gives them in different places.

For this test, the target named is T1, Human FXR full length (Homo sapiens, UniProt Q96RI1).
T1 construct: Human FXR full length and RXR full length was obtained from Ronald Evans' laboratory; expressed in transfected cells; host or cells: CV-1 cells
T1 sequence (Q96RI1 1-476 isoform Q96RI1-1): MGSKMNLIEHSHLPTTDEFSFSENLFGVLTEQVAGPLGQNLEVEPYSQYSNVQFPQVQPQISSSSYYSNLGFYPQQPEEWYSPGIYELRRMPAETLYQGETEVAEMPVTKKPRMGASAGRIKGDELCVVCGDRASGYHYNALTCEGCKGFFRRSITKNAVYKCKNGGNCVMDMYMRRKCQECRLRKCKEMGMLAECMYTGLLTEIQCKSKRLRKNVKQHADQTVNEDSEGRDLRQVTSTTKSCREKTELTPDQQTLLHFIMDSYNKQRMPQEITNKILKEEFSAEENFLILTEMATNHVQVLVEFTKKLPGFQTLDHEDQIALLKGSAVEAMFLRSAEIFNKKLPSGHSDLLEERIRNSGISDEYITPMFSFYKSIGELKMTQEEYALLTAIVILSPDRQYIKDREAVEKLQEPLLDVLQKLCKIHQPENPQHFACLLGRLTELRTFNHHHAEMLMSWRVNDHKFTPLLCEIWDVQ
T1 sequence (P19793 1-462 partner): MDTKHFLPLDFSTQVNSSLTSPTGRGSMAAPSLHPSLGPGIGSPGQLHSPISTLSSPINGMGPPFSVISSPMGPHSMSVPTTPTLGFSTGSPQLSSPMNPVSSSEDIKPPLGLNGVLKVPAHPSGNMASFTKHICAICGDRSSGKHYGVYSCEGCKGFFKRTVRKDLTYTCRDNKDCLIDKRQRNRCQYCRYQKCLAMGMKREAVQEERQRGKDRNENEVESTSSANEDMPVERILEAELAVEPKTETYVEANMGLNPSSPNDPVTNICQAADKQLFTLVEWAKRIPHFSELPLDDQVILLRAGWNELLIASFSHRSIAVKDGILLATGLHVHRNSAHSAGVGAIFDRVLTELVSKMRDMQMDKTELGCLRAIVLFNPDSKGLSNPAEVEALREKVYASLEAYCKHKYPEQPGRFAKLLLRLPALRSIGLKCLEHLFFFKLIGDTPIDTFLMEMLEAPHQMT
As to the kind of experiment: FXR activity screen, luciferase reporter in transfected CV-1 cells. It is filed as cell-based. The settings on record: CV-1 cells, 24 hours. The method, then: CV-1 cells were grown in DMEM+10% charcoal stripped FCS. Cells were seeded into 384-well plates the day before transfection to give a confluency of 50-80% at transfection. A total of […] DNA containing 0.32 micrograms pCMX-hFXRfl, 0.32 micrograms pCMX-hRXRfl, 0.1 micrograms pCMXβGal, 0.08 micrograms pGLFXRE reporter and 0.02 micrograms pCMX empty vector was transfected per well using FuGene transfection reagent according to the manufacturer's instructions (Roche). Cells were allowed to express protein for 48 hours followed by addition of compound.
Human FXR full length and RXR full length was obtained from Ronald Evans' laboratory and PCR amplification of the hFXR cDNA and the hRXR cDNA was performed. The amplified cDNAs was cloned into the vector pCMX generating the plasmids pCMX-hFXRfl and pCMX-hRXRfl. Ensuing fusions were verified by sequencing. The pCMXMH2004 luciferase reporter contains multiple copies of the GAL4 DNA response element under a minimal eukaryotic promoter (Hollenberg and Evans, 1988). pCMXβGal was generated in the Evans laboratory, Salk Institute.
All compounds were dissolved in DMSO and diluted 1:1000 upon addition to the cells. Compounds were tested in quadruple in concentrations ranging from 0.001 to 100 μM. Cells were treated with compound for 24 hours followed by luciferase assay. Each compound was tested in at least two separate experiments.
Medium including test compound was aspirated and washed with PBS. 50 μL PBS including 1 mM Mg^2+ and Ca^2+ were then added to each well. The luciferase assay was performed using the LucLite kit according to the manufacturer's instructions (Packard Instruments). Light emission was quantified by counting on a Perkin Elmer Envision reader. To measure […] activity 25 μL supernatant from each transfection lysate was transferred to a new 384 microplate. Beta-galactosidase assays were performed in the microwell plates using a kit from Promega and read in a Perkin Elmer Envision reader. The beta-galactosidase data were used to normalize (transfection efficiency, cell growth etc.) the luciferase data.
The activity of a compound is calculated as fold induction compared to an untreated sample. For each compound the efficacy (maximal activity) is given as a relative activity compared to Fexaramine, a FXR agonist. The EC50 is the concentration giving 50% of maximal observed activity. EC50 values were calculated via non-linear regression using GraphPad PRISM (GraphPad Software, San Diego, Calif.).
Background: In a reporter assay the amount or activity of a reporter protein is the signal.

Where [1] appears, read: first round, read-out: 1st RND EC50.
The mark [2] stands for this setting: second round, read-out: 2nd RND EC50.

`COC(=O)/C=C/c1cccc(N(Cc2ccc(-c3ccc(N(C)C)cc3)cc2)C(=O)[C@@H]2C[C@@H]3CC[C@H]2C3)c1` [NSSK00042]: the EC50 under setting [1] was 135 nM and the EC50 under setting [2] stood at 620 nM.

For the molecule `COC(=O)/C=C/c1cccc(N(Cc2ccc(-c3ccc4c(cnn4C)c3)cc2Cl)C(=O)c2ccccc2)c1` [NSSK00098], the EC50 is, setting by setting: under setting [1], 655 nM; under setting [2], 670 nM.

Turning to `COC(=O)/C=C/c1cccc(N(Cc2ccc(-c3ccc4c(cnn4C)c3)cc2)C(=O)C2CCCCC2)c1` [NSSK00004], the EC50 reads like this: under setting [1], 237 nM; under setting [2], 266 nM.

In the case of `[2H]C(c1ccc(-c2ccc(N(C)C)cc2)cc1Cl)N(C(=O)[C@@H]1C[C@@H]2CC[C@H]1C2)c1cc(F)cc(/C=C/C(=O)OC)c1` (some centres unmarked) [NSSK00104], the EC50 is, setting by setting: under setting [1], 227 nM; under setting [2], 547 nM.

Regarding `COC(=O)/C=C/c1cc(F)cc(N(Cc2ccc(-c3ccc4c(cnn4C)c3)cc2Cl)C(=O)C2CCCCC2)c1` [NSSK00097], the EC50 is, setting by setting: under setting [1], 866 nM; under setting [2], 726 nM.

`[2H]C(c1ccc(-c2ccc(N(C)C)cc2)cc1)N(C(=O)[C@@H]1C[C@@H]2CC[C@H]1C2)c1cccc(/C=C/C(=O)OC)c1` (some centres unmarked) [NSSK00107]: the EC50 under setting [1] turned out to be 450 nM and the EC50 under setting [2] worked out at 861 nM.

Regarding `COC(=O)/C=C/c1cc(F)cc(N(Cc2ccc(-c3ccc4c(cnn4C)c3)cc2Cl)C(=O)c2ccccc2)c1` [NSSK00100], the EC50 by setting is: under setting [1], 1400 nM; under setting [2], 1800 nM.

Take `[2H]C(c1ccc(-c2ccc3c(cnn3C)c2)cc1Cl)N(C(=O)C1CCCCC1)c1cccc(/C=C/C(=O)OC)c1` (centres unmarked) [NSSK00014]: the EC50 amounted to 346 nM under setting [1] and 475 nM under setting [2].

Consider `[2H]C(c1ccc(-c2ccc3c(cnn3C)c2)cc1)N(C(=O)[C@@H]1C[C@@H]2CC[C@H]1C2)c1cccc(/C=C/C(=O)OC)c1` (some centres unmarked) [NSSK00086], for which the EC50 is, setting by setting: under setting [1], 371 nM; under setting [2], 1600 nM.

Take `[2H]C(c1ccc(-c2ccc(N(C)C)cc2)cc1Cl)N(C(=O)[C@@H]1C[C@@H]2CC[C@H]1C2)c1cncc(/C=C/C(=O)OC)c1` (some centres unmarked) [NSSK00064]: the EC50 is 4600 nM under setting [1] and 3300 nM under setting [2].

In the case of `COC(=O)/C=C/c1cncc(N(Cc2cccc3cc4cnn(C)c4cc23)C(=O)C2CCCCC2)c1` [NSSK00005], the EC50 came out at 1820 nM under setting [1] and 2100 nM under setting [2].

For `[2H]C(c1ccc(-c2ccc(N(C)C)cc2)cc1Cl)N(C(=O)c1ccccc1)c1cc(F)cc(/C=C/C(=O)OC)c1` (centres unmarked) [NSSK00050], the EC50 is, setting by setting: under setting [1], 1700 nM; under setting [2], 2100 nM.

On to `COC(=O)/C=C/c1cncc(N(Cc2cccc3cc4cnn(C)c4c(Cl)c23)C(=O)C2CCCCC2)c1` [NSSK00009], for which the EC50 is, setting by setting: under setting [1], 3300 nM; under setting [2], 4900 nM.

Turning to `COC(=O)/C=C/c1cccc(N(Cc2ccc(-c3ccc4c(cnn4C)c3)cc2F)C(=O)c2ccccc2)c1` [NSSK00057], the EC50 stood at 606 nM under setting [1] and 795 nM under setting [2].

Take `[2H]C(c1ccc(-c2ccc(N(C)C)cc2)cc1F)N(C(=O)C1CCCCC1)c1cncc(/C=C/C(=O)OC)c1` (centres unmarked) [NSSK00030]: the half-maximal effective concentration (EC50) under setting [1] came out at 656 nM and the EC50 under setting [2] came out at 375 nM.

With `[2H]C(c1ccc(-c2ccc(N(C)C)cc2)cc1)N(C(=O)c1ccccc1)c1cncc(/C=C/C(=O)OC)c1` (centres unmarked) [NSSK00063], the EC50 by setting is: under setting [1], 3000 nM; under setting [2], 1900 nM.

`COC(=O)/C=C/c1cccc(N(Cc2cccc3ccc(N(C)C)c(F)c23)C(=O)C2CCCCC2)c1` [NSSK00002]: the EC50 by setting is: under setting [1], 96.8 nM; under setting [2], 65.9 nM.

As for `COC(=O)/C=C/c1cncc(N(Cc2ccc(-c3ccc(N(C)C)cc3)cc2F)C(=O)C2CCCCC2)c1` [NSSK00078], the EC50 runs as follows: under setting [1], 698 nM; under setting [2], 673 nM.

`[2H]C(c1ccc(-c2ccc(N(C)C)cc2)cc1)N(C(=O)[C@@H]1C[C@@H]2CC[C@H]1C2)c1cncc(/C=C/C(=O)OC)c1` (some centres unmarked) [NSSK00026]: the EC50 under setting [1] was determined as 587 nM and the EC50 under setting [2] was found to be 910 nM.

Regarding `[2H]C(c1ccc(-c2ccc3c(cnn3C)c2)cc1F)N(C(=O)C1CCCCC1)c1cc(F)cc(/C=C/C(=O)OC)c1` (centres unmarked) [NSSK00011], the EC50 is 289 nM under setting [1] and 379 nM under setting [2].

Turning to `COC(=O)/C=C/c1cccc(N(Cc2ccc(-c3ccc(N(C)C)cc3)cc2Cl)C(=O)C2CCCCC2)c1` [NSSK00080], the EC50 by setting is: under setting [1], 623 nM; under setting [2], 610 nM.

Take `COC(=O)/C=C/c1cc(F)cc(N(Cc2ccc(-c3ccc(N(C)C)cc3)cc2)C(=O)c2ccccc2)c1` [NSSK00068]: the EC50 under setting [1] amounted to 5700 nM and the EC50 under setting [2] turned out to be 7400 nM.

Take `COC(=O)/C=C/c1cccc(N(Cc2ccc(-c3ccc(N(C)C)cc3)cc2Cl)C(=O)[C@@H]2C[C@@H]3CC[C@H]2C3)c1` [NSSK00052]: the EC50 under setting [1] was 697 nM and the EC50 under setting [2] came out at 697 nM.

As for `COC(=O)/C=C/c1cc(F)cc(N(Cc2cccc3cc4cnn(C)c4c(F)c23)C(=O)C2CCCCC2)c1` [NSSK00007], the EC50 is, setting by setting: under setting [1], 473 nM; under setting [2], 169 nM.

In the case of `COC(=O)/C=C/c1cccc(N(Cc2cccc3cc4cnn(C)c4c(F)c23)C(=O)C2C[C@H]3CC[C@@H]2C3)c1` (some centres unmarked) [NSSK00019], the EC50 stood at 923 nM under setting [1] and 554 nM under setting [2].

For `[2H]C(c1ccc(-c2ccc(N(C)C)cc2)cc1)N(C(=O)C1CCCCC1)c1cncc(/C=C/C(=O)OC)c1` (centres unmarked) [NSSK00062], the EC50 runs as follows: under setting [1], 926 nM; under setting [2], 926 nM.

In the case of `COC(=O)/C=C/c1cncc(N(Cc2ccc(-c3ccc4c(cnn4C)c3)cc2)C(=O)c2ccccc2)c1` [NSSK00118], the EC50 by setting is: under setting [1], 7000 nM; under setting [2], 55000 nM.

Consider `COC(=O)/C=C/c1cc(F)cc(N(Cc2ccc(-c3ccc4c(cnn4C)c3)cc2)C(=O)C2CCCCC2)c1` [NSSK00084], for which the EC50 is, setting by setting: under setting [1], 3600 nM; under setting [2], 4700 nM.

For `[2H]C(c1ccc(-c2ccc(N(C)C)cc2)cc1F)N(C(=O)c1ccccc1)c1cccc(/C=C/C(=O)OC)c1` (centres unmarked) [NSSK00079], the EC50 reads like this: under setting [1], 513 nM; under setting [2], 605 nM.

Turning to `[2H]C(c1ccc(-c2ccc(N(C)C)cc2)cc1F)N(C(=O)C1CCCCC1)c1cc(F)cc(/C=C/C(=O)OC)c1` (centres unmarked) [NSSK00109], the EC50 is, setting by setting: under setting [1], 190 nM; under setting [2], 316 nM.

`COC(=O)/C=C/c1cncc(N(Cc2cccc3cc4cnn(C)c4cc23)C(=O)[C@@H]2C[C@@H]3CC[C@H]2C3)c1` [NSSK00018]: the concentration for a half-maximal effect (EC50) is, setting by setting: under setting [1], 380 nM; under setting [2], 415 nM.

For the molecule `[2H]C(c1ccc(-c2ccc3c(cnn3C)c2)cc1F)N(C(=O)C1CCCCC1)c1cncc(/C=C/C(=O)OC)c1` (centres unmarked) [NSSK00012], the EC50 runs as follows: under setting [1], 1200 nM; under setting [2], 1200 nM.

As to `COC(=O)/C=C/c1cncc(N(Cc2ccc(-c3ccc(N(C)C)cc3)cc2)C(=O)[C@@H]2C[C@@H]3CC[C@H]2C3)c1` [NSSK00059], the half-maximal effective concentration (EC50) reads like this: under setting [1], 1570 nM; under setting [2], 1300 nM.

In the case of `COC(=O)/C=C/c1cncc(N(Cc2ccc(-c3ccc(N(C)C)cc3)cc2)C(=O)c2ccccc2)c1` [NSSK00060], the EC50 under setting [1] turned out to be 8500 nM and the EC50 under setting [2] amounted to 11200 nM.

What is called EC50 is the concentration needed to bring the measured effect to its halfway point.
